Assay results as given in patent US9718790B2, “Triazine derivative and pharmaceutical composition having an analgesic activity comprising the same” (SHIONOGI & CO., LTD., priority 2010, dated 2017).
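Further: stimulus was 50 nM ATP with fluorescence followed for 3 min, and the response per well was peak post-ATP fluorescence divided by the reading at measurement start.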

The compounds below were run against human P2X3 receptor (Homo sapiens (Human), UniProt P56373) (assay: Evaluation of human P2X3 receptor inhibitory activity (Fluo-3 calcium fluorescence, FDSS 3000, ATP stimulation)). Conditions: C6BU-1 cells stably expressing human P2X3 receptor, Fluo-3 fluorescence, FDSS 3000.
Sequence of human P2X3 receptor (P56373 whole entry): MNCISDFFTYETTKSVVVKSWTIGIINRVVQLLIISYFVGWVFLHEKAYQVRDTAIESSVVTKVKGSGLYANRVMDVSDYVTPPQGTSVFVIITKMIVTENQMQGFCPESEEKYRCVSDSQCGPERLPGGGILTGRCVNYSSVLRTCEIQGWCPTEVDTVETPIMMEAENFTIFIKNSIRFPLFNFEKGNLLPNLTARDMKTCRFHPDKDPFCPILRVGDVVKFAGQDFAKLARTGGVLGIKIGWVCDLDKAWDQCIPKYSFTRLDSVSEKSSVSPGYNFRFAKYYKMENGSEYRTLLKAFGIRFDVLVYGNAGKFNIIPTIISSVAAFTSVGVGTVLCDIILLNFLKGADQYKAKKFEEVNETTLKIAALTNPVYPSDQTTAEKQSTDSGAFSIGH
Format: cell-based
`C[C@@H](C(=O)O)[C@H](C)n1c(=O)[nH]/c(=N\c2ccc3c(c2)OC(F)(F)O3)n(Cc2ccc(Cl)cc2)c1=O` [Compound I-1821] gave an IC50 of 429 nM.
`C[C@@H](C(=O)O)[C@H](C)n1c(=O)[nH]/c(=N\c2ccc3[nH]c(S)nc3c2)n(Cc2ccc(Cl)cc2)c1=O` [Compound I-1822] showed an IC50 of 332 nM.
For `C[C@@H](C(=O)O)[C@H](C)n1c(=O)[nH]/c(=N\c2ccc3c(O)cccc3c2)n(Cc2ccc(Cl)cc2)c1=O` [Compound I-1826], the IC50 was 751 nM.
`COC(=O)[C@H](C)[C@H](C)n1c(=O)[nH]/c(=N\c2ccc3oc4ccccc4c3c2)n(Cc2ccc(Cl)cc2)c1=O` [Compound I-1827] was tested, and the IC50 was 913 nM.
With `C[C@@H](C(=O)O)[C@H](C)n1c(=O)[nH]/c(=N\c2ccc3nc(-c4ccccc4)sc3c2)n(Cc2ccc(Cl)cc2)c1=O` [Compound I-1829] the IC50 was 92 nM.
With `C[C@@H](C(=O)O)[C@H](C)n1c(=O)[nH]/c(=N\c2ccc3c(c2)CCC3=O)n(Cc2ccc(Cl)cc2)c1=O` [Compound I-1830] the IC50 was 869 nM.
Compound `C[C@@H](C(=O)O)[C@H](C)n1c(=O)[nH]/c(=N\c2ccc3c(c2)C(=O)CC3)n(Cc2ccc(Cl)cc2)c1=O` [Compound I-1831] has an IC50 of 739 nM.
For `C[C@@H](C(=O)O)[C@H](C)n1c(=O)[nH]/c(=N\c2ccc3cc(Br)ccc3c2)n(Cc2ccc(Cl)cc2)c1=O` [Compound I-1832], the IC50 was 32 nM.
`C[C@@H](C(=O)O)[C@H](C)n1c(=O)[nH]/c(=N\c2ccc3c(c2)CCO3)n(Cc2ccc(Cl)cc2)c1=O` [Compound I-1833] gave an IC50 of 580 nM.
`C[C@@H](C(=O)O)[C@H](C)n1c(=O)[nH]/c(=N\c2ccc3ncccc3c2)n(Cc2ccc(Cl)cc2)c1=O` [Compound I-1834] was tested, and the IC50 was 325 nM.
For `Cc1cc(Oc2ccc(/N=c3\[nH]c(=O)n(CCCO)c(=O)n3Cc3ccc(Cl)cc3)cc2)no1` [Compound I-1835], the IC50 was 8 nM.
With `COC(=O)CCn1c(=O)[nH]/c(=N\c2cc(C(=O)OC)n(C)c2)n(Cc2ccc(C)cc2)c1=O` [Compound I-1836] the IC50 was 787 nM.
For `Cc1ccc(Cn2c(=O)n(CCC(=O)O)c(=O)[nH]/c2=N\c2cn(C)nc2C(=O)NC(C)C)cc1` [Compound I-1839], the IC50 was 107 nM.
`CCc1oc2ccc(/N=c3\[nH]c(=O)n(CC4COC(C)(C)OC4)c(=O)n3Cc3ccc(Cl)cc3)cc2c1C` [Compound I-1840] gave an IC50 of 7 nM.
`CC1(C)OCC(Cn2c(=O)[nH]/c(=N\c3ccc(OCC4CC4)cc3)n(Cc3ccc(Cl)cc3)c2=O)CO1` [Compound I-1841] gave an IC50 of 6 nM.
For `CCc1oc2ccc(/N=c3\[nH]c(=O)n(CC(CO)CO)c(=O)n3Cc3ccc(Cl)cc3)cc2c1C` [Compound I-1842], the IC50 was 5 nM.
`COc1ccc(Oc2ccc(/N=c3\[nH]c(=O)n(CC(CO)CO)c(=O)n3Cc3ccc(Cl)cc3)cc2)cn1` [Compound I-1843] showed an IC50 of 4 nM.
With `CCn1c(=O)[nH]/c(=N\c2ccc(Oc3ccnc(CO)c3)cc2)n(Cc2ccc(Cl)cc2)c1=O` [Compound I-1844] the IC50 was 4 nM.
For `C[C@@H](Oc1ccc(/N=c2\[nH]c(=O)n(C[C@H](O)CO)c(=O)n2Cc2ccc(Cl)cc2)cc1)C(F)(F)F` [Compound I-1845], the IC50 was 33 nM.
Work on `CNC(=O)c1cc(Oc2ccc(/N=c3\[nH]c(=O)[nH]c(=O)n3Cc3ccc(Cl)cc3)cc2)ccn1` [Compound I-1846] yielded an IC50 of 15 nM.
For `CCn1c(=O)[nH]/c(=N\c2ccc(Oc3ccc(OC)nc3)cc2)n(Cc2ccc(Cl)cc2)c1=O` [Compound I-1847], the IC50 was 6 nM.
`CCn1c(=O)[nH]/c(=N\c2ccc(Oc3ccc(O)nc3)cc2)n(Cc2ccc(Cl)cc2)c1=O` [Compound I-1848] was tested, and the IC50 was 14 nM.
`CC(=O)OCC(CO)CCn1c(=O)[nH]/c(=N\c2ccc3nc(C)sc3c2)n(Cc2ccc(Cl)cc2)c1=O` (centres unmarked) [Compound I-1851] gave an IC50 of 4 nM.
`Cc1nc2ccc(/N=c3\[nH]c(=O)n(CCC4COC(C)(C)OC4)c(=O)n3Cc3ccc(Cl)cc3)cc2s1` [Compound I-1852] showed an IC50 of 5 nM.
In the case of `Cc1nc2ccc(/N=c3\[nH]c(=O)n(CCC(CO)CO)c(=O)n3Cc3ccc(Cl)cc3)cc2s1` [Compound I-1853], the IC50 is reported as 4 nM.
`CC1(C)OC[C@H](Cn2c(=O)[nH]/c(=N\c3ccc(OCC4CC4)cc3)n(Cc3ccc(Cl)cc3)c2=O)O1` [Compound I-1854] showed an IC50 of 4 nM.
`O=c1[nH]/c(=N\c2ccc(OCC3CC3)cc2)n(Cc2ccc(Cl)cc2)c(=O)n1C[C@H](O)CO` [Compound I-1855] gave an IC50 of 21 nM.
`COc1ccc(Oc2ccc(/N=c3\[nH]c(=O)n(CC(N)=O)c(=O)n3Cc3ccc(Cl)cc3)cc2)cn1` [Compound I-1856] was tested, and the IC50 was 8 nM.
`CNC(=O)Cn1c(=O)[nH]/c(=N\c2ccc(Oc3ccc(OC)nc3)cc2)n(Cc2ccc(Cl)cc2)c1=O` [Compound I-1857] was tested, and the IC50 was 7 nM.
With `COc1ccc(Oc2ccc(/N=c3\[nH]c(=O)n(CC(=O)NCCO)c(=O)n3Cc3ccc(Cl)cc3)cc2)cn1` [Compound I-1858] the IC50 was 5 nM.
`CCn1c(=O)[nH]/c(=N\c2ccc(Oc3cc(OC)ncn3)cc2)n(Cc2ccc(Cl)cc2)c1=O` [Compound I-1859] showed an IC50 of 5 nM.
`CCOC(=O)CCn1c(=O)[nH]/c(=N\c2ccc(OC(C)C)c(F)c2)n(CC2C[C@H]3CC[C@@H]2C3)c1=O` (some centres unmarked) [Compound I-1860] gave an IC50 of 150 nM.
Compound `CC(C)Oc1ccc(/N=c2\[nH]c(=O)n(CCC(=O)O)c(=O)n2CC2C[C@H]3CC[C@@H]2C3)cc1F` (some centres unmarked) [Compound I-1862] has an IC50 of 552 nM.
With `CCn1c(=O)[nH]/c(=N\c2ccc(Oc3cncc(C(=O)OC)c3)cc2)n(Cc2ccc(Cl)cc2)c1=O` [Compound I-1863] the IC50 was 5 nM.
For `CCOc1ccc(Cc2nc(=O)n(C[C@H](C)C(=O)OC)c(=O)n2Cc2ccc(Cl)cc2)cc1` [Compound I-1864], the IC50 was 186 nM.
`COC(=O)[C@@H](C)Cn1c(=O)nc(Cc2ccccc2C)n(Cc2ccc(Cl)cc2)c1=O` [Compound I-1865] was tested, and the IC50 was 357 nM.
Compound `COC(=O)[C@@H](C)Cn1c(=O)nc(Cc2ccc(OC)c(F)c2)n(Cc2ccc(Cl)cc2)c1=O` [Compound I-1869] has an IC50 of 328 nM.
`CCn1c(=O)[nH]/c(=N\c2ccc(Oc3ccc(C(N)=O)cc3)cc2)n(Cc2ccc(Cl)cc2)c1=O` [Compound I-1870] gave an IC50 of 4 nM.
Compound `CCn1c(=O)[nH]/c(=N\c2ccc(Oc3ccc(NC(C)=O)cc3)cc2)n(Cc2ccc(Cl)cc2)c1=O` [Compound I-1871] has an IC50 of 6 nM.
Work on `CCOC(=O)CCn1c(=O)[nH]/c(=N\c2ccc(Oc3ccc(F)cc3)cc2)n(Cc2ccc(Cl)cc2)c1=O` [Compound I-1872] yielded an IC50 of 15 nM.
Work on `COC(=O)CCCCn1c(=O)[nH]/c(=N\c2ccc(OC(C)C)c(Cl)c2)n(Cc2ccc(C)cc2)c1=O` [Compound I-1873] yielded an IC50 of 2 nM.
In the case of `Cc1ccc(Cn2c(=O)n(CCC(=O)NS(C)(=O)=O)c(=O)[nH]/c2=N\c2ccc(OC(C)C)c(Cl)c2)cc1` [Compound I-1874], the IC50 is reported as 13 nM.
`CCc1nc2ccc(/N=c3\[nH]c(=O)n(CCC(=O)NS(C)(=O)=O)c(=O)n3Cc3ccc(Cl)cc3)cc2s1` [Compound I-1875] gave an IC50 of 13 nM.
With `CC(C)Oc1ccc(/N=c2\[nH]c(=O)n(CC(=O)NS(C)(=O)=O)c(=O)n2Cc2ccc(Cl)cc2)cc1Cl` [Compound I-1876] the IC50 was 35 nM.
Compound `O=C(O)CCn1c(=O)[nH]/c(=N\c2ccc(Oc3ccc(F)cc3)cc2)n(Cc2ccc(Cl)cc2)c1=O` [Compound I-1877] has an IC50 of 36 nM.
Work on `Cc1ccc(Cn2c(=O)n(CCCCC(=O)O)c(=O)[nH]/c2=N\c2ccc(OC(C)C)c(Cl)c2)cc1` [Compound I-1878] yielded an IC50 of 10 nM.
For `COC(=O)c1cc(/N=c2\[nH]c(=O)n(CCC(=O)O)c(=O)n2Cc2ccc(C)cc2)cn1C` [Compound I-1879], the IC50 was 128 nM.
`CCn1c(=O)[nH]/c(=N\c2ccc(Oc3cccc(C(=O)OC)c3)cc2)n(Cc2ccc(Cl)cc2)c1=O` [Compound I-1880] was tested, and the IC50 was 15 nM.
Compound `CCn1c(=O)[nH]/c(=N\c2ccc(Oc3cccc(C(=O)O)c3)cc2)n(Cc2ccc(Cl)cc2)c1=O` [Compound I-1881] has an IC50 of 6 nM.
`C[C@@H](Oc1ccc(/N=c2\[nH]c(=O)n(CC(CO)CO)c(=O)n2Cc2ccc(Cl)cc2)cc1)C(F)(F)F` [Compound I-1882] gave an IC50 of 16 nM.
`O=C(O)c1cc(Oc2ccc(/N=c3\[nH]c(=O)[nH]c(=O)n3Cc3ccc(Cl)cc3)cc2)ccn1` [Compound I-1883] was tested, and the IC50 was 7 nM.
Compound `CCOC(=O)CCn1c(=O)[nH]/c(=N\c2ccc(OC(C)C)c(F)c2)n(CC2CCC(F)(F)CC2)c1=O` [Compound I-1884] has an IC50 of 296 nM.
Compound `CCn1c(=O)[nH]/c(=N\c2ccc(Oc3cncc(C(=O)O)c3)cc2)n(Cc2ccc(Cl)cc2)c1=O` [Compound I-1885] has an IC50 of 7 nM.
`CCOc1ccc(/N=c2\[nH]c(=O)n(CC3COC(C)(C)OC3)c(=O)n2Cc2ccc(Cl)cc2)cc1Cl` [Compound I-1886] showed an IC50 of 3 nM.
`CCOc1ccc(/N=c2\[nH]c(=O)n(C[C@H]3COC(C)(C)O3)c(=O)n2Cc2ccc(Cl)cc2)cc1Cl` [Compound I-1887] was tested, and the IC50 was 3 nM.
`CCn1c(=O)[nH]/c(=N\c2ccc(Oc3cc(O)ncn3)cc2)n(Cc2ccc(Cl)cc2)c1=O` [Compound I-1888] showed an IC50 of 10 nM.
`CCn1c(=O)[nH]/c(=N\c2ccc(Oc3cccc(CC(=O)OC)c3)cc2)n(Cc2ccc(Cl)cc2)c1=O` [Compound I-1889] showed an IC50 of 23 nM.
With `COC(=O)CCn1c(=O)[nH]/c(=N\c2ccccc2NC(C)=O)n(Cc2ccc(C)cc2)c1=O` [Compound I-1892] the IC50 was 113 nM.
`COC(=O)CCn1c(=O)[nH]/c(=N\c2cc(-c3ccncc3)c[nH]c2=O)n(Cc2ccc(C)cc2)c1=O` [Compound I-1893] gave an IC50 of 178 nM.
Work on `CCn1c(=O)[nH]/c(=N\c2ccc(Oc3cccc(CC(=O)O)c3)cc2)n(Cc2ccc(Cl)cc2)c1=O` [Compound I-1894] yielded an IC50 of 23 nM.
Compound `NC(=O)c1cc(Oc2ccc(/N=c3\[nH]c(=O)[nH]c(=O)n3Cc3ccc(Cl)cc3)cc2)ccn1` [Compound I-1896] has an IC50 of 14 nM.
`O=C(NCCO)c1cc(Oc2ccc(/N=c3\[nH]c(=O)[nH]c(=O)n3Cc3ccc(Cl)cc3)cc2)ccn1` [Compound I-1897] showed an IC50 of 24 nM.
For `O=C(NCC(F)(F)F)c1cc(Oc2ccc(/N=c3\[nH]c(=O)[nH]c(=O)n3Cc3ccc(Cl)cc3)cc2)ccn1` [Compound I-1898], the IC50 was 11 nM.
In the case of `Cc1cc(/N=c2\[nH]c(=O)n(CC3COC(C)(C)OC3)c(=O)n2Cc2ccc(Cl)cc2)ccc1OC(C)C` [Compound I-1899], the IC50 is reported as 4 nM.
`NC(=O)Cn1c(=O)[nH]/c(=N\c2ccc(Oc3ccc(O)nc3)cc2)n(Cc2ccc(Cl)cc2)c1=O` [Compound I-1900] was tested, and the IC50 was 16 nM.
